Like-named read-outs stand apart in the source and are kept apart here.
Experiments:
[1] = 109th meeting of Japan Pharmacological Society, 1989; cited from earlier work
[2] = tested on: liver diseases caused by carbon tetrachloride, endotoxin shock and cataracts caused by hydrocortisone; conditions: Watanabe 1988; Matsumoto 1989; Nishigoori 1989; cited from earlier work
[3] = tested on: kidney; conditions: Watanabe et al, Hiroshima J. Med. Sci.; cited from earlier work
[4] = tested on: male mice SPF-ICR; experiment: Acute toxicity test (1), intraperitoneal; conditions: mouse, in vivo
Description: To male mice SPF-ICR five weeks old (supplied by Japan Charles River Co.) were intraperitoneally administered PQQ·2Na, PQQ trimethyl ester, PQQ triallyl ester, OPQ, 1-methylpropyl OPQ, 2-methylthioethyl OPQ and benzyl OPQ at dosages of 40, 80, 160 and 200 mg per kg of body weight of mouce, respectively and they were bred for 14 days at 25° C. One group consisted of 8 mice. For administration, PQQ·2Na and OPQ and esters thereof were dissolved in physiological saline and PQQ trimethyl ester and PQQ triallyl ester were suspended in 1% Tween 80-containing physiological saline, respectively.

[5] = tested on: male mice SPF-ICR; experiment: Acute Toxicity Test (3), intraperitoneal; type: in vivo; conditions: for mice died: 8 mice per group, 14 days
Text: One group consisted of 8 mice.

[6] = tested on: male mice SPF-ICR; experiment: Acute Toxicity Test (4), oral; type: in vivo; conditions: oral 1.0, 1.5 and 2.0 g/kg, 8 mice per group, 14 days
Description: To male mice SPF-ICR five weeks old (supplied by Japan Charles River Co.) was orally administered OPQ at dosages of 1.0, 1.5 and 2.0 g per kg of body weight of mouse, respectively and they were bred for 14 days at 25° C. One group consisted of 8 mice. No mice died.

[7] = tested on: mice; conditions: mouse, in vivo, ip
Description: One group consisted of 8 mice. For administration, PQQ·2Na and OPQ and esters thereof were dissolved in physiological saline and PQQ trimethyl ester and PQQ triallyl ester were suspended in 1% Tween 80-containing physiological saline, respectively.
PQQ·2Na, PQQ trimethyl ester, PQQ triallyl ester and OPQ and esters thereof were intraperitoneally administered to mice and they were bred in the same manner as in the above acute toxicity test. Urine of the mice was taken every day and glucose concentration was measured using clinical examination reagent (trademark: […] 2 manufactured by Miles.Sankyo Co.).

[8] = tested on: mice; experiment: Kidney Toxicity Determined by Blood Examination (1); type: in vivo; conditions: mouse serum
Description: (§1) After lapse of one day from the administration, the mice were fasted (with feeding only water) and then after 18 hours, blood was collected and serum was obtained therefrom. Glucose, urea nitrogen and creatinine in the serum were examined by clinical examination reagent (trademark: FUJI DRYCHEMSLIDE manufactured by Fuji Photo Film Co., Ltd.).

[9] = tested on: mice; experiment: Kidney Toxicity Determined by Blood Examination (3); type: in vivo; conditions: mouse serum
Description: as §1, with “Thereafter,” for “After lapse of one day from the administration,”

[10] = Superoxide scavenging activity (hypoxanthine-xanthine oxidase, DMPO spin trapping, ESR); type: biochemical; conditions: Example 2, Table 7; pH 7.3; read-out: O2^- scavenging activity IC50
Text: Activity of PQQ esters to scavenge superoxide (O2^-) produced in the system of hypoxanthinexanthine oxidase was examined by spin trapping method [using 5,5-dimethyl-l-pyrroline-N-oxide (hereinafter referred to as "DMPO") as a spin trapping agent] where electron spin resonance (hereinafter referred to as "ESR") was used.
Hypoxanthine+2O2 →2O2^- +uric acid (xanthine oxidase)
The following reagents were successively put in a test tube and stirred after addition of the hypoxanthine 7 to initiate the reaction and the reaction mixture was transferred to a quartz cell used for measurement of ESR.
Superoxide scavenging activity of OPQ and esters thereof was examined in the same manner as in Example 1.

[11] = Hydroxy radical scavenging activity (H2O2-(Fe^2+-DTPA), DMPO spin trapping, ESR); type: biochemical; conditions: Example 4, Table 9; pH 7.3; read-out: .OH scavenging activity IC50
Text: Activity of PQQ esters to scavenge hydroxy radical (·OH) produced in the system of H2 O2 --(Fe^2+ -DTPA) was examined by spin trapping method [using 5,5-dimethyl-1-pyrroline-N-oxide (hereinafter referred to as "DMPO") as a spin trapping agent] where electron spin resonance (hereinafter referred to as "ESR") was used. DTPA means diethylenetriamine-pentaacetic acid.
H2 O2 +Fe^2 -DTPA complex→·OH+OH^-
The following reagents were successively put in a test tube and stirred after addition of H2 O2 6 to initiate the reaction and the reaction mixture was transferred to a quartz cell used for measurement of ESR.
Hydroxy radical scavenging activity of OPQ and esters thereof was examined in the same manner as in Example 3.

[12] = tested on: Hydrocortisone-Induced Cataract of Hen's Eggs; experiment: Effect on hydrocortisone-induced cataract of hen's eggs; type: in vivo, white leghorn (hen's eggs); conditions: 1 μmole at 3, 10 and 20 h after hydrocortisone; lens at 48 h
Description: Fertilized eggs of white leghorn were incubated in an incubator at a temperature of 37° C. and 70% in humidity. The day on which the incubation was started was taken to be one day old. […] eggs of 15 day old were prepared and divided into 7 groups, each of which included 5 eggs (A-G). A small hole was bored through the eggshell above air chamber of the eggs of groups B-G and 0.25 μmole (as 0.2 ml solution) of hydrocortisone sodium succinate was administered into the air chamber through the hole and then, the hole was sealed with a cellophane tape. To The eggs of groups C-G was administered 1 μmole of following compounds after 3, 10 and 20 hours from administration of hydrocortisone sodium succinate. That is, 0.2 ml of a solution of PQQ·2Na in distilled water was administered to the eggs of group C, 0.2 ml of a suspension of PQQ trimethyl ester in 1% Tween 80 solution was administered to the eggs of group D, 0.2 ml of a suspension of triallyl ester in 1% Tween 80 solution was administered to the eggs of group E, 0.2 ml of a solution of OPQ in 10 mM NaCO3 solution was administered to the eggs of group F, and 0.2 ml of a solution of methyl OPQ in 10 mM NaCO3 solution was administered to the eggs of group G.
Crystal lens was taken out after 48 hours from administration of hydrocortisone sodium succinate and degree of cataract was judged by the criteria according to the Nishigori et al method (Nishigori et al, "Investigative Ophthalmology & Visual Science", Vol. 25, page 1051, 1984).
5 The whole nucleus was hazed in white.

O=C(O)c1cc(C(=O)O)c2c(n1)C(=O)C(=O)c1cc(C(=O)O)[nH]c1-2 [PQQ, pyrrolo quinoline quinone]
active oxygen scavenging action [1]: strong active oxygen scavenging action
inhibition of diseases [2]: inhibits liver diseases caused by carbon tetrachloride, endotoxin shock and cataracts caused by hydrocortisone
kidney toxicity [3]: has kidney toxicity

O=C(O)c1cc(C(=O)O)c2c(n1)c1ncoc1c1cc(C(=O)O)[nH]c12 [OPQ, 2,8,10-tricarboxy-1-H-oxazo[5,4-h]-pyrrolo[2,3-f]quinoline]
mice died [4]: no mice died
mice died ([5]; i.p. 0.1-0.4 g/kg): No mice died
mice died ([5]; i.p. 0.8 g/kg): two mice died
mice died ([5]; i.p. 1.0 g/kg): three mice died
mice died ([5]; i.p. 1.2 g/kg): six mice died
LD50 ([5]; mouse, in vivo, ip, 336 h): about 1.0 g/kg-mouse
mice died [6]: No mice died
glucose in urine ([7]; 20 mg/kg): -
glucose in urine ([7]; 40 mg/kg): -
glucose in urine ([7]; 80 mg/kg): -
glucose in urine ([7]; 160 mg/kg): -
glucose in urine ([7]; 200 mg/kg): -
glucose in urine ([7]; 400 mg/kg): -
glucose in urine ([7]; 800 mg/kg): -
glucose in urine ([7]; 1000 mg/kg): -
glucose in urine ([7]; 1200 mg/kg): -
Creatinine ([8]; 40 mg/kg): 0.70 ± 0.10 mg/dL
Glucose ([8]; 40 mg/kg): 90 ± 18 mg/dL
Urea nitrogen ([8]; 40 mg/kg): 25 ± 3 mg/dL
Creatinine ([8]; 80 mg/kg): 0.80 ± 0.10 mg/dL
Glucose ([8]; 80 mg/kg): 86 ± 10 mg/dL
Urea nitrogen ([8]; 80 mg/kg): 23 ± 4 mg/dL
Creatinine ([8]; 160 mg/kg): 0.73 ± 0.09 mg/dL
Glucose ([8]; 160 mg/kg): 90 ± 23 mg/dL
Urea nitrogen ([8]; 160 mg/kg): 27 ± 6 mg/dL
Creatinine ([8]; 200 mg/kg): 0.81 ± 0.08 mg/dL
Glucose ([8]; 200 mg/kg): 85 ± 24 mg/dL
Urea nitrogen ([8]; 200 mg/kg): 28 ± 4 mg/dL
Creatinine ([9]; i.p. 150 mg/kg): 0.75 ± 0.05 mg/dL
Glucose ([9]; i.p. 150 mg/kg): 106 ± 21 mg/dL
Urea nitrogen ([9]; i.p. 150 mg/kg): 32 ± 3 mg/dL
Creatinine ([9]; i.p. 300 mg/kg): 0.78 ± 0.04 mg/dL
Glucose ([9]; i.p. 300 mg/kg): 80 ± 15 mg/dL
Urea nitrogen ([9]; i.p. 300 mg/kg): 29 ± 2 mg/dL
Creatinine ([9]; i.p. 400 mg/kg): 0.78 ± 0.04 mg/dL
Glucose ([9]; i.p. 400 mg/kg): 104 ± 18 mg/dL
Urea nitrogen ([9]; i.p. 400 mg/kg): 29 ± 3 mg/dL
Creatinine ([9]; i.p. 600 mg/kg): 0.78 ± 0.11 mg/dL
Glucose ([9]; i.p. 600 mg/kg): 74 ± 11 mg/dL
Urea nitrogen ([9]; i.p. 600 mg/kg): 32 ± 5 mg/dL
IC50 [10]: 1.22 µM
IC50 [11]: 198 µM
Judgement 2 (Slight opaque ring was seen in crystal lens), eggs [12]: 1/5
Judgement 3 (Clear ring of white haze was seen in crystal lens), eggs [12]: 1/5
Judgement 4 ~ 5 (white haze of pinhole size in nucleus ~ whole nucleus hazed in white), eggs [12]: 3/5

Source: patent publication US5369112A, “Method of treating cataracts caused by active oxygen” (Mitsubishi Gas Chemical Company, Inc., priority 1991, dated 1994)
